Experimental data taken from PMC7604503, “Cyclic peptides can engage a single binding pocket through highly divergent modes” (Proceedings of the National Academy of Sciences of the …, 2020).
Where a SMILES comes first, the peptide text is derived from it. Bridges are numbered along the chain shown (N, C = ends).

What was measured:
GCN5L2 = target: T1, GCN5L2 (Homo sapiens, UniProt Q92830); test: BROMOscan competition binding assay (BromoMAX, Eurofins DiscoverX); conditions: for Percent Control GCN5L2: compound concentration 1000 nM, lower percentage control = stronger affinity
T1 construct: purchased Eurofins DiscoverX (BROMOscan, BromoMAX)
T1 sequence (Q92830 whole entry): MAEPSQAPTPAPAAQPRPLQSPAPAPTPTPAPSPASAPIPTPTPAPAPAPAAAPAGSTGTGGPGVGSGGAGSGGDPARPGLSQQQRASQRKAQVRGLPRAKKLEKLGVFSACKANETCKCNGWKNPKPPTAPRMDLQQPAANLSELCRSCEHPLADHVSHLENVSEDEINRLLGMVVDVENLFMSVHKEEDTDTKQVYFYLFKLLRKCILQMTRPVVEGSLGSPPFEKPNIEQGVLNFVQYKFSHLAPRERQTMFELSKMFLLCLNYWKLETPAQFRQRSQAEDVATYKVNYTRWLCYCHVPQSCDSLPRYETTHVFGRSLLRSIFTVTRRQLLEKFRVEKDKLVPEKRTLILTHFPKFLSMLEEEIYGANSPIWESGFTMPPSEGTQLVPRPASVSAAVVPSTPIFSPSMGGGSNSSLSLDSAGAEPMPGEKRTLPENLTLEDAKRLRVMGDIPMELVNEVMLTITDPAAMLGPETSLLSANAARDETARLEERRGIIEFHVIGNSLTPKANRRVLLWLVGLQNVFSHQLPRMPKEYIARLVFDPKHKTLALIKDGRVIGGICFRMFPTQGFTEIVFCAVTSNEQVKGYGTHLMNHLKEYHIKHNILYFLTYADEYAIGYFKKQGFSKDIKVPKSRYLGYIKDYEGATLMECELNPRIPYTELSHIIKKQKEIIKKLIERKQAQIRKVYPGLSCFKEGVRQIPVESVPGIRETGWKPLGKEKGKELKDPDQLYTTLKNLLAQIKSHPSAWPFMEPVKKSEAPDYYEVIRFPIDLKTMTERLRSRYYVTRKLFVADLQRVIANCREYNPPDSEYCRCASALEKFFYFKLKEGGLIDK

BAZ2B = target: T2, BAZ2B (Homo sapiens, UniProt Q9UIF8); test: as above; conditions: for Percent Control BAZ2B: compound concentration 1000 nM, lower percentage control = stronger affinity
T2 construct: purchased Eurofins DiscoverX (BROMOscan, BromoMAX)
T2 sequence (Q9UIF8 whole entry): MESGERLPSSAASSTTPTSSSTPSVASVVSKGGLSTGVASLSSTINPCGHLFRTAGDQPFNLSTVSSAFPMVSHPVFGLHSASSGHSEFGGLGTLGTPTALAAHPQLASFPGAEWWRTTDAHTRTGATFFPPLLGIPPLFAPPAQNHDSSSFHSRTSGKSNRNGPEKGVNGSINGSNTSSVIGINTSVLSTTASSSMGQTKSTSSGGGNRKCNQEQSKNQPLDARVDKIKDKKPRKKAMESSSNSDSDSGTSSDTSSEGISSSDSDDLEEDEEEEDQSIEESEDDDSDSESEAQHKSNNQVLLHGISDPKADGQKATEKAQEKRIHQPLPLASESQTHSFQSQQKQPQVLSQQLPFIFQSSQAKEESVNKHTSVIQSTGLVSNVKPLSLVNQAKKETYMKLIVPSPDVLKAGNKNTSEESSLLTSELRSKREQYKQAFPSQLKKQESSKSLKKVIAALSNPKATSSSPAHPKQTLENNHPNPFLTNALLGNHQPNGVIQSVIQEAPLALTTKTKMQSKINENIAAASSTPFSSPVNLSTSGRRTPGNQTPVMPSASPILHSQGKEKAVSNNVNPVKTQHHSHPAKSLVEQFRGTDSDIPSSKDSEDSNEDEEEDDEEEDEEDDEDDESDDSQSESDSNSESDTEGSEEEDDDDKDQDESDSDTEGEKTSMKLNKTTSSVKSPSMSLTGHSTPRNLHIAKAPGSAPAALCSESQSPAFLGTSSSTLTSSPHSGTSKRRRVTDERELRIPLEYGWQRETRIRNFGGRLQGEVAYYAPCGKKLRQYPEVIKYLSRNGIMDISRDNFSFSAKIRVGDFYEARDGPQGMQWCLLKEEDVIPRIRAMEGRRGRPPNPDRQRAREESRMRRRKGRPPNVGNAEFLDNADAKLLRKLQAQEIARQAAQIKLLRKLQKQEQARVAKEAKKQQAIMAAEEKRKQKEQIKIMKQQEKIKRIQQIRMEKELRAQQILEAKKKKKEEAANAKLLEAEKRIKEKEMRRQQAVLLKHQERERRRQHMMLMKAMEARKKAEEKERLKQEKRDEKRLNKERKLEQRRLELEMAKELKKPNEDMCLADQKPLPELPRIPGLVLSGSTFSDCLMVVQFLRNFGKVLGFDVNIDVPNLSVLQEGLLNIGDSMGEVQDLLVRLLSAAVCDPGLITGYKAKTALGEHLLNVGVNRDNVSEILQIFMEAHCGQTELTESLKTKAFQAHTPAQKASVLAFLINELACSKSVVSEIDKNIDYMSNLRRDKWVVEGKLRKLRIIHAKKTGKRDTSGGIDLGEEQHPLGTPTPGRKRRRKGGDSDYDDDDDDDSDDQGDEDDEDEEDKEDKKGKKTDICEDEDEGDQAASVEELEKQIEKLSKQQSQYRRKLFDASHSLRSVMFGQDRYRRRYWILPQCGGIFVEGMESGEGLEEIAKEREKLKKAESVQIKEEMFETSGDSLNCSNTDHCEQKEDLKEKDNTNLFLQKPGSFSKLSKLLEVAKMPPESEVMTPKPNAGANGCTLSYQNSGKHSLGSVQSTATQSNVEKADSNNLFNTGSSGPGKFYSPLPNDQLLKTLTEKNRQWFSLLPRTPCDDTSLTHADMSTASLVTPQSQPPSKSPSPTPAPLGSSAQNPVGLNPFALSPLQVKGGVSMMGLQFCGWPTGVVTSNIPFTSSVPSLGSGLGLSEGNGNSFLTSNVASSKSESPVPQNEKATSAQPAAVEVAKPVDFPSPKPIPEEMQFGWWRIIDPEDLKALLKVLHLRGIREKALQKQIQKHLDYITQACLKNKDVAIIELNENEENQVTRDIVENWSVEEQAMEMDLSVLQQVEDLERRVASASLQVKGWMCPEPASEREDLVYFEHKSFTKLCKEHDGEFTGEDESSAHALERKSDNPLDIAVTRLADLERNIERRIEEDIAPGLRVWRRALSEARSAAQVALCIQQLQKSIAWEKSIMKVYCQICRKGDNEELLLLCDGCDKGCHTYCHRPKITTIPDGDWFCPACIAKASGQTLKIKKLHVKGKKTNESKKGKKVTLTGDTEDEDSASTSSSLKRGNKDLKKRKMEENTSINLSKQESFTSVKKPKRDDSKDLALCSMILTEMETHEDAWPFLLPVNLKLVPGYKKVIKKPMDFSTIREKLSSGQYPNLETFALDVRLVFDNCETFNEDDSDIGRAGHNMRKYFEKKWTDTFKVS

BRD2-BD2 = target: T3, BRD2-BD2 (Homo sapiens, UniProt P25440); test: SPR binding of peptides to immobilised biotinylated BET bromodomain
T3 construct: human BRD2 (BD1: 65-194; BD2: 347-455); Avi tag (biotinylated); made in house; host or cells: E. coli BL21(DE3)
T3 sequence (P25440 347-455): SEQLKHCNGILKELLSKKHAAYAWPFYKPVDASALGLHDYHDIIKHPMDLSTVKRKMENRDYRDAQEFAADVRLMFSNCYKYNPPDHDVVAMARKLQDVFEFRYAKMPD
Source text: (§1) We next assessed the ability of each of the three lead peptides to bind BRD3-BD1. […] To assess selectivity for other BET BDs, we used SPR to determine the binding affinity of each peptide toward the remaining BDs from BRD2, BRD3, and BRD4 (Fig. 1B). […]
(§2) Crude peptides were purified by reverse-phase high-performance liquid chromatography using a Chromolith Prep column (Merck) on a Prominence LC-20AP system (Shimadzu) (Solvent A: 0.1% TFA in H2O, Solvent B: 0.1% TFA in acetonitrile) to >95% purity as determined by mass spectrometry (Fig. S17). Purified peptides were reconstituted in DMSO and concentrations determined from their absorbance at 280 nm in 5% DMSO using predicted extinction coefficients.
(§3) Surface plasmon resonance (SPR)
(§4) Measurements were conducted on a T200 or S200 (GE Healthcare) and data analysed using the Biacore Insight Evaluation Software. Experiments were performed at 4 °C in single cycle kinetics mode. Biotinylated BET bromodomains were immobilised on a CAP chip (GE Healthcare) with a […]
(§5) pH 7.5 was used as the running buffer. […]

BRD3-BD1 = target: T4, BRD3-BD1 (Homo sapiens, UniProt Q15059); test: as above
T4 construct: BRD3 (BD1: 25-147); Avi tag (biotinylated); made in house; host or cells: E. coli BL21(DE3)
T4 sequence (Q15059 25-147): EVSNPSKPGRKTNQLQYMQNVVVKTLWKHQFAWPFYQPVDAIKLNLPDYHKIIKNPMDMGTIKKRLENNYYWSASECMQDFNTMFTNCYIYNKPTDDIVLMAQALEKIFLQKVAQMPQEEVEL
Source text: as §1, §2, §3, §4, §5

TAF1L(2) = target: T5, TAF1L(2) (Homo sapiens, UniProt Q8IZX4); test: BROMOscan competition binding assay (BromoMAX, Eurofins DiscoverX); conditions: for Percent Control TAF1L(2): compound concentration 1000 nM, lower percentage control = stronger affinity
T5 construct: TAF1L(2); purchased Eurofins DiscoverX (BROMOscan, BromoMAX)
T5 sequence (Q8IZX4 1519-1654 limits assumed): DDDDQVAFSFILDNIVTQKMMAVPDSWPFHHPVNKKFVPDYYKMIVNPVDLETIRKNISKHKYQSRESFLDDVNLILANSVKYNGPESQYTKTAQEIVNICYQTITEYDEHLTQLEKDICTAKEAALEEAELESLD

BRPF3 = target: T6, BRPF3 (Homo sapiens, UniProt Q9ULD4); test: as above; conditions: for Percent Control BRPF3: compound concentration 1000 nM, lower percentage control = stronger affinity
T6 construct: purchased Eurofins DiscoverX (BROMOscan, BromoMAX)
T6 sequence (Q9ULD4 1-1205): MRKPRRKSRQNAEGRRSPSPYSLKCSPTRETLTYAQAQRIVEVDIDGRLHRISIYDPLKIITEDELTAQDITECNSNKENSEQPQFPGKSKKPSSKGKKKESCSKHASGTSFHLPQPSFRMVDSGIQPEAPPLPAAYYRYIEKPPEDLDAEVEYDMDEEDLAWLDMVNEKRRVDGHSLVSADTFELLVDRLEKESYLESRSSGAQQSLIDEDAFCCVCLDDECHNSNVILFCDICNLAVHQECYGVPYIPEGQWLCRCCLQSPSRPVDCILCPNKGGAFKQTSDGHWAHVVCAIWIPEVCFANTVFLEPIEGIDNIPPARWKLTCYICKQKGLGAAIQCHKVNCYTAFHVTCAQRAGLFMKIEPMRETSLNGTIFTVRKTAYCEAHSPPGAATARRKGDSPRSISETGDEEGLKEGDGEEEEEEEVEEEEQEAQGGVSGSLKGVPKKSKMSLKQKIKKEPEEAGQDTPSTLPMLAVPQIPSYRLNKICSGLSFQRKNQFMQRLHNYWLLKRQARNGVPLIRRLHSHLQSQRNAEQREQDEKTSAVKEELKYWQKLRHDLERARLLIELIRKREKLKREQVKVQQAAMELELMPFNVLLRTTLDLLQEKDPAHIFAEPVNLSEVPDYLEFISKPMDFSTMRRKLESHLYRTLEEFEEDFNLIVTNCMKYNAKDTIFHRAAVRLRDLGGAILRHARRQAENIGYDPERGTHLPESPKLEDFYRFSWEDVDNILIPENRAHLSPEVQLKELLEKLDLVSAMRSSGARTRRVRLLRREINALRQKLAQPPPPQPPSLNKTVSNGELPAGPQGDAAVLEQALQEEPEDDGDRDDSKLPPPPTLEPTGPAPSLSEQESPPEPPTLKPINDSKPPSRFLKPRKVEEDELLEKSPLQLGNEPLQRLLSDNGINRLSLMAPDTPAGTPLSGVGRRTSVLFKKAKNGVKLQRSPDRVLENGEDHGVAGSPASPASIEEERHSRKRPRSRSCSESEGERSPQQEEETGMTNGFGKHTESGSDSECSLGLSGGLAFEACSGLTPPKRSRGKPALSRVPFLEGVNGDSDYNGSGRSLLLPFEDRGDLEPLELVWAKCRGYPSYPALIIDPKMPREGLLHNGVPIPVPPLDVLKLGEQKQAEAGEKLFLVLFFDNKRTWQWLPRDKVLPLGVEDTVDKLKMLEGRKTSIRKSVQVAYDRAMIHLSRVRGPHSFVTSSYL

CECR2 = target: T7, CECR2 (Homo sapiens, UniProt Q9BXF3); test: as above; conditions: for Percent Control CECR2: compound concentration 1000 nM, lower percentage control = stronger affinity
T7 construct: purchased Eurofins DiscoverX (BROMOscan, BromoMAX)
T7 sequence (Q9BXF3 whole entry): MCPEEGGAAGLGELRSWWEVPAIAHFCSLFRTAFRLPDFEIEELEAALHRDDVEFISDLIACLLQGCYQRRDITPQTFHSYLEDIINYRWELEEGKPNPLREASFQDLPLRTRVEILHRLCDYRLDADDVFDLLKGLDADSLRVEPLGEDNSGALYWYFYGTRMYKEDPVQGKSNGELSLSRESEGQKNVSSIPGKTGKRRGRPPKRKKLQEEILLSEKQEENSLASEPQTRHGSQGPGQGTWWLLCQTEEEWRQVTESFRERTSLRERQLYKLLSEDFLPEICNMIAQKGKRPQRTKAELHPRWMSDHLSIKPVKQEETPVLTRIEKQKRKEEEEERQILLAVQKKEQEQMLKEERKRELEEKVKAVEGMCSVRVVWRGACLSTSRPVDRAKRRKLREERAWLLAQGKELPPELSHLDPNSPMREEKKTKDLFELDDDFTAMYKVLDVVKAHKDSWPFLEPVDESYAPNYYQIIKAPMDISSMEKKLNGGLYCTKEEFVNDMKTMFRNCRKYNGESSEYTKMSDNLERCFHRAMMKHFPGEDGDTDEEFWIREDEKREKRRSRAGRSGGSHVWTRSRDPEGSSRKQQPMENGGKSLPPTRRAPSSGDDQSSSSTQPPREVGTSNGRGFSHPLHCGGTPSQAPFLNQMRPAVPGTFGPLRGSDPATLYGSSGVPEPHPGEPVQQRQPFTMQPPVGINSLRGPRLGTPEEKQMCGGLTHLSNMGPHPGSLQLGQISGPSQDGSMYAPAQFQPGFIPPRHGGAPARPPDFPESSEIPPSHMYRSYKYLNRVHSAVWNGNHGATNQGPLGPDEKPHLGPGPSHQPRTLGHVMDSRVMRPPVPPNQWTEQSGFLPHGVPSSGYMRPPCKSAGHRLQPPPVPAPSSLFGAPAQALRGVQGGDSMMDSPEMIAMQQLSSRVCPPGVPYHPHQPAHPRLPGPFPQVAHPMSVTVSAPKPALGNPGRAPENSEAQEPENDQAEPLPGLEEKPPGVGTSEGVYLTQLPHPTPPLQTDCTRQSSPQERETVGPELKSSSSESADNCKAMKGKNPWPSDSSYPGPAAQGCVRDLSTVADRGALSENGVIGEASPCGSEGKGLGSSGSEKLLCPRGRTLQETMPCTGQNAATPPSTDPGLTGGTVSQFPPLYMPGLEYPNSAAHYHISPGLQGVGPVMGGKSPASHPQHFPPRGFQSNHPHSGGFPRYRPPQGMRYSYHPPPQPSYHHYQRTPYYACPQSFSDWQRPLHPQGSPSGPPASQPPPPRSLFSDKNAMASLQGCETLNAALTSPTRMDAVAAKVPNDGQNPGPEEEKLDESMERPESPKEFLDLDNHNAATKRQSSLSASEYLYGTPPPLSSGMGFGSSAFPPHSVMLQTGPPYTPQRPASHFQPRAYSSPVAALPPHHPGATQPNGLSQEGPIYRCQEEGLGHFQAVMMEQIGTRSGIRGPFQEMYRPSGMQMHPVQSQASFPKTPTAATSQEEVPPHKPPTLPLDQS

FALZ = target: T8, FALZ (Homo sapiens, UniProt Q12830); test: as above; conditions: for Percent Control FALZ: compound concentration 1000 nM, lower percentage control = stronger affinity
T8 construct: purchased Eurofins DiscoverX (BROMOscan, BromoMAX)

SMARCA2 = target: T9, SMARCA2 (Homo sapiens, UniProt P51531); test: as above; conditions: for Percent Control SMARCA2: compound concentration 1000 nM, lower percentage control = stronger affinity
T9 construct: purchased Eurofins DiscoverX (BROMOscan, BromoMAX)

BRD3(2) = target: T10, BRD3(2) (Homo sapiens, UniProt Q15059); test: as above; conditions: for Percent Control BRD3(2): compound concentration 1000 nM, lower percentage control = stronger affinity
T10 construct: BRD3(2); purchased Eurofins DiscoverX (BROMOscan, BromoMAX)
T10 sequence (Q15059 306-416 limits assumed): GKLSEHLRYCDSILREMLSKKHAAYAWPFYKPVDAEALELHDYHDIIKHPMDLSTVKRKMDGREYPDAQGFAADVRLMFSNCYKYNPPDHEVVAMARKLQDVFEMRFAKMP

BRDT(2) = target: T11, BRDT(2) (Homo sapiens, UniProt Q58F21); test: as above; conditions: for Percent Control BRDT(2): compound concentration 1000 nM, lower percentage control = stronger affinity
T11 construct: BRDT(2); purchased Eurofins DiscoverX (BROMOscan, BromoMAX)

PBRM1(2) = target: T12, PBRM1(2) (Homo sapiens, UniProt Q86U86); test: as above; conditions: for Percent Control PBRM1(2): compound concentration 1000 nM, lower percentage control = stronger affinity
T12 construct: PBRM1(2); purchased Eurofins DiscoverX (BROMOscan, BromoMAX)
T12 sequence (Q86U86 178-291 limits assumed): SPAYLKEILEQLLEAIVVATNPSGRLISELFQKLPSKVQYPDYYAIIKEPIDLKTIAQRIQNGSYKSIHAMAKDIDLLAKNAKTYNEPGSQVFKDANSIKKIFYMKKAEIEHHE

[1] = gray boxed value: no reproducible signals observed at the concentrations used
[2] = 4 C, geometric mean and SD of two to five measurements

CC[C@H](C)[C@@H]1NC(=O)[C@H]([C@@H](C)O)NC(=O)[C@H](CCCCN)NC(=O)[C@H](Cc2c[nH]c3ccccc23)NC(=O)CSC[C@@H](C(N)=O)NC(=O)[C@H](CCC(N)=O)NC(=O)[C@H](CCCCNC(C)=O)NC(=O)[C@H]([C@@H](C)O)NC(=O)[C@H](CCCNC(=N)N)NC(=O)[C@H](Cc2c[nH]c3ccccc23)NC(=O)[C@H]([C@@H](C)O)NC(=O)[C@H](CCCCNC(C)=O)NC(=O)CNC(=O)[C@H](CCCCNC(C)=O)NC1=O [3.1B] ({CH2CO}-WKTIK(Ac)GK(Ac)TWRTK(Ac)QC-NH2; thioether N-14)
Percent Control GCN5L2 (GCN5L2): 100%
Percent Control BAZ2B (BAZ2B): 100%
Kd (BRD2-BD2; [1]): > 10000 nM
Kd (BRD3-BD1; [2]): 0.49 ± 0.63 nM
Percent Control TAF1L(2) (TAF1L(2)): 100%
Percent Control BRPF3 (BRPF3): 100%
Percent Control CECR2 (CECR2): 100%
Percent Control FALZ (FALZ): 73%
Percent Control SMARCA2 (SMARCA2): 34%
Percent Control BRD3(2) (BRD3(2)): 100%
Percent Control BRDT(2) (BRDT(2)): 100%
Percent Control PBRM1(2) (PBRM1(2)): 100%

CC[C@H](C)[C@@H]1NC(=O)[C@H](Cc2c[nH]c3ccccc23)NC(=O)[C@H](Cc2c[nH]c3ccccc23)NC(=O)CSC[C@@H](C(N)=O)NC(=O)CNC(=O)[C@H](CCCCNC(C)=O)NC(=O)[C@H](CCCCN)NC(=O)[C@H](C(C)C)NC(=O)[C@H](CCCCNC(C)=O)NC(=O)[C@@H]2CCCN2C(=O)[C@H]([C@@H](C)CC)NC1=O [3.1C] ({CH2CO}-WWIIPK(Ac)VKK(Ac)GC-NH2; thioether N-11)
Percent Control GCN5L2 (GCN5L2): 100%
Percent Control BAZ2B (BAZ2B): 100%
Kd (BRD2-BD2; [2]): 9.2 ± 25 nM
Kd (BRD3-BD1; [2]): 0.08 ± 0.049 nM
Percent Control TAF1L(2) (TAF1L(2)): 100%
Percent Control BRPF3 (BRPF3): 95%
Percent Control CECR2 (CECR2): 99%
Percent Control FALZ (FALZ): 93%
Percent Control SMARCA2 (SMARCA2): 35%
Percent Control BRD3(2) (BRD3(2)): 13%
Percent Control BRDT(2) (BRDT(2)): 4.9%
Percent Control PBRM1(2) (PBRM1(2)): 100%

CC[C@H](C)[C@H](NC(=O)[C@H](CCCNC(=N)N)NC(=O)[C@H](CCCCNC(C)=O)NC(=O)[C@H](CCCNC(=N)N)NC(=O)[C@H](CC(C)C)NC(=O)[C@@H]1CSCC(=O)N[C@@H](Cc2c[nH]c3ccccc23)C(=O)N[C@@H](CCCCNC(C)=O)C(=O)NCC(=O)N[C@@H](Cc2ccc(O)cc2)C(=O)N[C@@H](CC(C)C)C(=O)N1)C(=O)N[C@@H](CCC(N)=O)C(=O)N[C@@H](CCCNC(=N)N)C(=O)N[C@H](C(=O)N[C@@H](Cc1ccc(O)cc1)C(=O)N[C@@H](CC(N)=O)C(N)=O)[C@@H](C)O [4.2C] ({CH2CO}-WK(Ac)GYLCLRK(Ac)RIQRTYN-NH2; thioether N-6)
percent of control binding at 1 µM (GCN5L2): 96%
remaining binding at 1 µM (BAZ2B; read-out: Percent Control BAZ2B): 99%
Kd (BRD2-BD2; [2]): 22 ± 26 nM
Kd (BRD3-BD1; [1]): > 10000 nM
remaining binding at 1 µM (TAF1L(2); read-out: Percent Control TAF1L(2)): 100%
remaining binding at 1 µM (BRPF3; read-out: Percent Control BRPF3): 92%
percent of control binding at 1 µM (CECR2): 99%
remaining binding at 1 µM (FALZ; read-out: Percent Control FALZ): 96%
percent of control binding at 1 µM (SMARCA2): 36%
remaining binding at 1 µM (BRD3(2); read-out: Percent Control BRD3(2)): 96%
percent of control binding at 1 µM (BRDT(2)): 92%
remaining binding at 1 µM (PBRM1(2); read-out: Percent Control PBRM1(2)): 100%
